ChEMBL document CHEMBL4808169, “Discovery of Potent and Fast-Acting Antimalarial Bis-1,2,4-triazines” (J Med Chem, 2021)
Active and inactive are the calls of the source. The calls are words filed in the database; no cut-off is given here.

Legend:
[1] = Drug metabolism in rat liver microsomes assessed as formation of cleavage product M-69 in presence of NADPH by LC-MS/MS(CID) analysis; assay type: ADME, Microsome
[2] = Drug metabolism in human hepatocytes assessed as oxygenated metabolite M+16(2) formation by LC-MS/MS(CID) analysis; assay type: ADME, cell-based, Hepatocyte
[3] = Drug metabolism in mouse liver microsomes assessed as oxygenated metabolite N-methyl-2-(3'-propoxy-5,5'-bi(1,2,4-triazin)-3-yloxy)ethanamine oxide formation by LC-MS/MS(CID) analysis; assay type: ADME, Microsome
[4] = Intrinsic clearance in mouse liver microsomes in presence of NADPH by UPLC-MS analysis; assay type: ADME, Microsome
[5] = Drug metabolism in Sprague-Dawley rat urine assessed as M-32 metabolite formation at 3 mg/kg, iv by high-resolution mass spectrometry; assay type: ADME, organism-based; conditions: in vivo
[6] = system: Plasmodium falciparum; experiment: Antimalarial activity against Plasmodium falciparum 3D7 infected in human red blood cells at 40 uM after 72 hrs by DAPI-staining based assay relative to control; assay type: functional
[7] = Drug metabolism in mouse liver microsomes assessed as oxygenated metabolite M+16(1) formation by LC-MS/MS(CID) analysis; assay type: ADME, Microsome
[8] = Drug metabolism in Sprague-Dawley rat urine assessed as oxygenated metabolite M+16(2) formation at 10 mg/kg, po by high-resolution mass spectrometry; assay type: ADME, organism-based; conditions: in vivo
[9] = Drug metabolism in mouse hepatocytes assessed as oxygenated metabolite M+16(2) formation by LC-MS/MS(CID) analysis; assay type: ADME, cell-based, Hepatocyte
[10] = Volume of distribution at steady state in Sprague-Dawley rat plasma at 3 mg/kg, iv measured up to 24 hrs by LC-MS analysis; assay type: ADME, organism-based; conditions: read-out: Vdss
[11] = Intrinsic clearance in human liver microsomes assessed per mg of protein in presence of NADPH by UPLC-MS analysis; assay type: ADME, Microsome; conditions: read-out: CLH
[12] = system: Plasmodium; experiment: Antimalarial activity against Plasmodium assessed as transmission blocking potential by measuring reduction in male gamete formation by dual gamete formation assay; assay type: functional, organism-based
[13] = Drug metabolism in human liver microsomes assessed as N-methyl-2-(3'-propoxy-5,5'-bi(1,2,4-triazin)-3-yloxy)ethanamine formation by LC-MS/MS(CID) analysis; assay type: ADME, Microsome
[14] = Apparent blood clearance in Sprague-Dawley rat at 3 mg/kg, iv measured up to 24 hrs by LC-MS analysis; assay type: ADME, organism-based; conditions: read-out: CL(app)
[15] = Drug metabolism in Sprague-Dawley rat urine assessed as oxygenated metabolite M+16(1) formation at 10 mg/kg, po by high-resolution mass spectrometry; assay type: ADME, organism-based; conditions: in vivo
[16] = Drug metabolism in mouse liver microsomes assessed as formation of cleavage product M-69 by LC-MS/MS(CID) analysis; assay type: ADME, Microsome
[17] = Tmax in Swiss mouse at 2.8 mg/kg, po measured up to 24 hrs by LC-MS analysis; assay type: ADME, organism-based; conditions: in vivo
[18] = target: Cytochrome P450 2D6 (Homo sapiens, UniProt P10635); experiment: Inhibition of CYP2D6 in human liver microsomes assessed as reduction in […] activity by . high-pressure liquid chromatography-tandem mass spectrometry; assay type: ADME
Cytochrome P450 2D6, sequence (P10635 whole entry): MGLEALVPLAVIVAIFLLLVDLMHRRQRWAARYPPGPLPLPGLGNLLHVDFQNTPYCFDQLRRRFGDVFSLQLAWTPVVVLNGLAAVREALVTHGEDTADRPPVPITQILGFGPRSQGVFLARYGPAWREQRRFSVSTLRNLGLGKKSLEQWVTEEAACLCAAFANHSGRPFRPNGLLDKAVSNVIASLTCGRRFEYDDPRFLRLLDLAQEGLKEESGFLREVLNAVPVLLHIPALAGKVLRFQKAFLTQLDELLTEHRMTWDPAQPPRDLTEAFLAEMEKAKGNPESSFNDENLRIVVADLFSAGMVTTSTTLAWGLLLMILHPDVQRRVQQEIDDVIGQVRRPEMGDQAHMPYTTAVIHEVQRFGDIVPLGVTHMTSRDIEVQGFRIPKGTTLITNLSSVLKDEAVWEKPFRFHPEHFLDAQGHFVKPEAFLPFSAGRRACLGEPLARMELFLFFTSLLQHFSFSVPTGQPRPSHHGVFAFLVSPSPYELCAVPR

[19] = Drug metabolism in Sprague-Dawley rat feces assessed as oxygenated metabolite M+16(2) formation at 3 mg/kg, iv by high-resolution mass spectrometry; assay type: ADME, organism-based; conditions: in vivo
[20] = target: Cytochrome P450 3A4 (Homo sapiens, UniProt P08684); experiment: Inhibition of CYP3A4 in human liver microsomes assessed as reduction in midazolam 1-hydroxylase activity by . high-pressure liquid chromatography-tandem mass spectrometry; assay type: ADME
Cytochrome P450 3A4, sequence (P08684 whole entry): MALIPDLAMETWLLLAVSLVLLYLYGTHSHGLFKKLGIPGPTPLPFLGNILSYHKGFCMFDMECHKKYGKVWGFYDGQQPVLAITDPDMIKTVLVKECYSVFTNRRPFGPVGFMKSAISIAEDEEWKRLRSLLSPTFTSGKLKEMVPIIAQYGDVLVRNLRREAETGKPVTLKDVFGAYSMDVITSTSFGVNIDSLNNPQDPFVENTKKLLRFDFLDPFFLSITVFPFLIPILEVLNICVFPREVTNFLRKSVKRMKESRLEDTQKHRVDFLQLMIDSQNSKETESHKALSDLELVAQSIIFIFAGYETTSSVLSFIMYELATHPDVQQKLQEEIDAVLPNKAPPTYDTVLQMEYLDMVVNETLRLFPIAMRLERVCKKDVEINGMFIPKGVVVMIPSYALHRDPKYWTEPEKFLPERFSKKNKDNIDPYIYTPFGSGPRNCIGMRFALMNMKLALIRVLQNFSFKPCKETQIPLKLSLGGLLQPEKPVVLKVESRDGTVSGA

[21] = Kinetic solubility of compound at pH 6.5 by nephelometry; assay type: physicochemical; conditions: buffer, read-out: Kinetic_solubility
[22] = system: HEK293; experiment: Cytotoxicity against HEK293 cells incubated for 24 hrs by MTT assay; assay type: cell-based; conditions: Homo sapiens, HEK293, 24 h
[23] = target: Cytochrome P450 2C19 (Homo sapiens, UniProt P33261); experiment: Inhibition of CYP2C19 in human liver microsomes assessed as reduction in […] activity by . high-pressure liquid chromatography-tandem mass spectrometry; assay type: ADME
Cytochrome P450 2C19, sequence (P33261 whole entry): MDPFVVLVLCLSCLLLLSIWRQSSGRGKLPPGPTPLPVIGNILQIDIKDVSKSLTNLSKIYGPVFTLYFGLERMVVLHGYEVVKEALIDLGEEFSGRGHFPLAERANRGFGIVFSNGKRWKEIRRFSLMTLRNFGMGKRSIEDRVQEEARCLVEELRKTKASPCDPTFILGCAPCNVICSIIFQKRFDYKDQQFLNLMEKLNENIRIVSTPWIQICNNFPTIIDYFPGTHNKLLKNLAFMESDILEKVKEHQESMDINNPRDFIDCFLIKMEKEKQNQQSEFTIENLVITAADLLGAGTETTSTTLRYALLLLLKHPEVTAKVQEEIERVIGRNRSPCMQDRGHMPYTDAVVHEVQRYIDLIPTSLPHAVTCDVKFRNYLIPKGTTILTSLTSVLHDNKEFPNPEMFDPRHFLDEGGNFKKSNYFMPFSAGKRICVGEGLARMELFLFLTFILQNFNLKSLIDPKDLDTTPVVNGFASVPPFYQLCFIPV

[24] = Tmax in Sprague-Dawley rat plasma at 10 mg/kg, po administered via gavage measured up to 24 hrs by LC-MS analysis; assay type: ADME, organism-based
[25] = Efflux ratio of apparent permeability in human Caco2 cells measured over 120 mins by LC-MS analysis; assay type: ADME, cell-based; conditions: Caco-2
[26] = Drug metabolism in rat hepatocytes assessed as N-methyl-2-(3'-propoxy-5,5'-bi(1,2,4-triazin)-3-yloxy)ethanamine formation by LC-MS/MS(CID) analysis; assay type: ADME, cell-based, Hepatocyte
[27] = Drug metabolism in mouse liver microsomes assessed as oxygenated metabolite M+16(2) formation by LC-MS/MS(CID) analysis; assay type: ADME, Microsome
[28] = Apparent half life in Swiss mouse at 27 mg/kg, po measured up to 24 hrs by LC-MS analysis; conditions: in vivo, read-out: t1/2(app) (converted)
[29] = Drug metabolism in rat liver microsomes assessed as 3'-propoxy-5,5'-bi(1,2,4-triazin)-3-ol formation by LC-MS/MS(CID) analysis; assay type: ADME, Microsome
[30] = Drug metabolism in rat hepatocytes assessed as oxygenated metabolite N-methyl-2-(3'-propoxy-5,5'-bi(1,2,4-triazin)-3-yloxy)ethanamine oxide formation by LC-MS/MS(CID) analysis; assay type: ADME, cell-based, Hepatocyte
[31] = Drug metabolism in Sprague-Dawley rat feces assessed as M-32 metabolite formation at 10 mg/kg, po by high-resolution mass spectrometry; assay type: ADME, organism-based; conditions: in vivo
[32] = Drug metabolism in mouse liver microsomes assessed as formation of cleavage product M-69 in presence of NADPH by LC-MS/MS(CID) analysis; assay type: ADME, Microsome
[33] = Drug metabolism in Sprague-Dawley rat urine assessed as M-32 metabolite formation at 10 mg/kg, po by high-resolution mass spectrometry; assay type: ADME, organism-based; conditions: in vivo
[34] = system: Plasmodium falciparum; experiment: Bactericidal activity against Plasmodium falciparum 3D7A at 10 times IC50; assay type: functional, organism-based
[35] = system: Plasmodium falciparum; experiment: Antiplasmodial activity against Plasmodium falciparum NF54 by 3H-incorporation growth inhibition assay; assay type: functional, organism-based
[36] = Oral bioavailability in Swiss mouse at 2.8 mg/kg measured up to 24 hrs; assay type: ADME, organism-based; conditions: in vivo
[37] = Cmax in Sprague-Dawley rat plasma at 10 mg/kg, po administered via gavage measured at 0.25 to 2.5 hrs by LC-MS analysis; assay type: ADME, organism-based; set-up: route oral, time upper 2.5 hrs, dose 10 mg/kg, time lower 0.25 hrs
[38] = AUC(0 to infinity) in Sprague-Dawley rat plasma at 3 mg/kg, iv measured up to 24 hrs by LC-MS analysis; assay type: ADME, organism-based; set-up: route intravenous, dose 3 mg/kg, time <=24
[39] = Drug metabolism in Sprague-Dawley rat feces assessed as oxygenated metabolite M+16(1) formation at 3 mg/kg, iv by high-resolution mass spectrometry; assay type: ADME, organism-based; conditions: in vivo
[40] = Half life in mouse liver microsomes in presence of NADPH by UPLC-MS analysis; assay type: ADME, Microsome
[41] = Oral availability in Sprague-Dawley rat at 10 mg/kg measured up to 24 hrs by LC-MS analysis; assay type: ADME, organism-based; conditions: in vivo
[42] = Drug metabolism in rat hepatocytes assessed as 3'-propoxy-5,5'-bi(1,2,4-triazin)-3-ol formation by LC-MS/MS(CID) analysis; assay type: ADME, cell-based, Hepatocyte
[43] = system: Plasmodium; experiment: Antimalarial activity against Plasmodium assessed as transmission blocking potential by measuring reduction in female gamete formation by dual gamete formation assay; assay type: functional, organism-based

Drug metabolism [1]: Metabolite_Detected | Drug metabolism [2]: Metabolite_Detected | Drug metabolism [3]: Metabolite_Detected | microsomal CLint [4]: 42 µL/min/mg | Drug metabolism [5]: Metabolite_Detected | Drug metabolism [7]: Metabolite_Detected | Drug metabolism [8]: Metabolite_Detected | Drug metabolism [9]: Metabolite_Detected | Vd [10]: 2.8 L/kg | microsomal CLint [11]: 8 µL/min/mg | EC50 [12]: 1200 nM | Drug metabolism [13]: Metabolite_Notdetected | clearance [14]: 205 mL/min/kg | Drug metabolism [15]: Metabolite_Detected | Drug metabolism [16]: Metabolite_Detected | Tmax [17]: 0.5 h | IC50 [18]: > 20000 nM | Drug metabolism [19]: Metabolite_Detected | IC50 [20]: > 20000 nM | solubility kinetic [21]: > 100 µg/mL | IC50 [23]: > 20000 nM | Tmax [24]: 1.3 h | efflux ratio at 2 h [25]: 1.1 | Drug metabolism [26]: Metabolite_Detected | Drug metabolism [27]: Metabolite_Detected | half-life [28]: 3 h | Drug metabolism [29]: Metabolite_Notdetected | Drug metabolism [30]: Metabolite_Detected | Drug metabolism [31]: Metabolite_Detected | Drug metabolism [32]: Metabolite_Detected | Drug metabolism [33]: Metabolite_Detected | bioavailability [36]: 10% | Cmax [37]: 89.4 nM | AUC(0-inf) [38]: 0.658 µM·h | Drug metabolism [39]: Metabolite_Detected | half-life [40]: 0.7 h | bioavailability [41]: 7.49% | Drug metabolism [42]: Metabolite_Detected | EC50 [43]: 2900 nM
SMILES: CCCOc1nncc(-c2cnnc(OCCN(C)C)n2)n1
Activity [6]: 100% | EC50 [22]: 36000 nM | Activity [34]: Active | IC50 [35]: 21 nM
